Measured values reported in US4950667A, “Pyridinyl acetamide compounds useful in treating ulcers” (Hamari Chemicals, Ltd., priority 1988, dated 1990).
Where a name gives a salt, the structure may show the parent alone.

Experiments:
[1] = system: water-immersion stress-induced gastric ulcer (Slc:SD rats); assay: Water-immersion stress ulceration method; assay type: in vivo, rat (male Slc:SD); conditions: for Inhibition rate: vs non-treated control
Method: The stomachs were incised along the greater curvature, and the ulcers thus induced were measured for length under the stereoscopic microscope (magnification,×10), whereby the total sum of the lengths was taken as an ulcer index (U.I., in mm). The test substance was given orally to rats in the form of a 4% gum arabic suspension 30 minutes before stress loading.

Acute toxicity = conditions: mouse, in vivo; male ddY mice, single oral dose, observed for 7 days
Source text: A group of five male ddY mice (4-weeks aged) was used for testing.
The compound of Example 1 was suspended in 4% gum arabic solution to prepare a test pharmaceutical, which was given orally to each test animals once.

[2] = 30 mg/kg, oral, 30 minutes before stress loading, 7 hours stress
[3] = 10 mg/kg, oral, 30 minutes before stress loading, 7 hours stress

| SMILES | Inhibition rate ([1]; 30 mg/kg, control reference (Cimetidine), no significance mark) [%] | ulcer index (U.I.), Mean ± S.E. [1, 2] [mm] | ulcer index (U.I.), Mean ± S.E. [1, 3] [mm] | Inhibition rate [1, 3] [%] | Inhibition rate ([1]; 30 mg/kg, oral, 30 minutes before stress loading, 7 hours stress, *p < 0.05) [%] | ulcer index (U.I.), Mean ± S.E. ([1]; 100 mg/kg, oral, 30 minutes before stress loading, 7 hours stress) [mm] | Inhibition rate ([1]; 100 mg/kg, oral, 30 minutes before stress loading, 7 hours stress, **p < 0.01) [%] | LD50 at 168 h (Acute toxicity) [mg/kg] |
| --- | --- | --- | --- | --- | --- | --- | --- | --- |
| CN/C(=N/CCSCc1nc[nH]c1C)NC#N [Cimetidine, reference compound] | 61.4 | 5.2 ± 3.40 | – | – | – | – | – | – |
| O=C(CNc1ccncc1)Nc1ccccc1Nc1ccccc1 [Example 1, N-[2-(phenylamino),phenyl]-2-[(4-pyridinyl)-amino]actetamide hydrochloride] | – | 3.8 ± 1.66 | 13.0 ± 4.47 | 2.8 | 71.3 | 1.5 ± 1.31 | 88.8 | ≥ 2000 |
